The subject of data set [1] is thioglycollate-induced peritoneal macrophages. Put plainly: TNF induction from thioglycollate-induced peritoneal macrophages (ELISA and L929 cytotoxicity bioassay). The format is cell-based, murine. Here is the method:
Serial dilutions of an extract of parasitized RBC which (undiluted) induced 435 ng/ml of TNF as determined by ELISA and 30,400 U/ml in the bioassay were incubated at pH 8.0 at 37° C. overnight with a series of concentrations of α-galactosidase from Sigma or from Oxford Glycosystems, boiled, neutralised and then tested on macrophages for TNF induction by bioassay and ELISA (means of duplicates). The amount of TNF that would have been induced by the original undiluted extract was then calculated.
(§1) (One of 2 experiments) (A) Rate of reaction of 0.04 U/ml of α-galactosidase at 37° C. with p-nitrophenyl-α-D-galactopyranoside as substrate as determined over the first 3 mins. (B) Malaria toxin from P. yoelii diluted 1/10 and (C) 50 ng/ml of LPS were incubated overnight at 37° C. with 2 U/ml of α-galactosidase,then boiled and tested on macrophages for TNF induction, assayed by ELISA. (Means of duplicates).
Mice bred at University College London ((CBA×Balb/c)F1 or CBA×C57B1) F1) were infected with P. yoelii YM or P. berghei ANKA. Parasitized RBC (1×10^8/ml)in Earle's Balanced Salt Solution (BSS; Life Technologies Ltd, Paisley, U.K.) were incubated at 37° C. overnight, then disrupted by freezing and thawing, digested overnight with 250 μg pronase E (Sigma) per mg of protein (determined by BioRad assay), boiled, treated with 25 μg/ml polymyxin B agarose (Sigma) to eliminate endotoxin, filtered through a 0.2-μm filter (Sartorius AG, Gottingen, Germany) and stored at 4° C. (24). TNF induction from thioglycollate-induced peritoneal macrophages and ELISA assays for murine TNF were described previously (24). Polymyxin B (5 μg/ml) was included in all experiments with malaria toxin to exclude effects from contaminating LPS. A more sensitive one-plate procedure for TNF production and assay was also used (5). Cytotoxicity assays for TNF were done using L929 cells (23). Green coffee bean α-D-galactosidase was obtained from 2 sources (Sigma, Poole, Dorset, UK and Oxford GlycoSystems Ltd, Abingdon, Oxford UK).
In general terms: An ELISA detects its analyte on a solid surface through an enzyme-linked reagent.

Data set [2] can be described thus: α-galactosidase hydrolysis of p-nitrophenyl-α-D-galactopyranoside (αPNP-Gal). The format is biochemical. Here is the method: as §1
The α-galactosidase hydrolysis of p-nitrophenyl-α-D-galactopyranoside (αPNP-Gal) is optimal at pH 6.0 (4, 9) and undetectable at pH 8.0 (9), as we confirmed, but enhancement of TNF-induction by malaria toxin was greatest at pH 8.0 (FIG. 2.). […] The degree of enhancement also varied with the concentration of LPS, and at higher concentrations enhancement was also detectable at pH 6.0.

Data set [3] can be described thus: β-galactosidase activity against βPNP-Gal. Format: biochemical. The following applies: pH 6.0; α-galactosidase preparations. An excerpt: This was supported by the observation of batch to batch variability and the fact that the stability of the TNF-enhancing activity differed from the αPNP-Gal activity. Although all enzyme preparations were first dialysed and adjusted to the same activity against αPNP-Gal, batches from different sources enhanced to different degrees (as illustrated in FIG. 1). […] Apart from BSA, all preparations contained 3 bands of 33 kD, 29 kD and 27 kD; 28 kD and 36.5 kD isoforms were previously described (4).

Take “α-galactosidase: Green coffee bean α-D-galactosidase obtained from Sigma and Oxford GlycoSystems”: the “TNF secretion of macrophages pre-treated with enzyme, then stimulated with toxin or LPS” value in data set [1] (2 U/ml enzyme for 1 hr at 37° C., then toxin or 2 or 10 ng/ml LPS) was “did not secrete more TNF than untreated cells”. Further, the “TNF induction from macrophages incubated with enzyme only” value in data set [1] (2 U/ml enzyme only) is listed as “No TNF was induced”. Moreover, the “increase in potency of LPS in stimulating the release of TNFα from macrophages” value in data set [1] (bacterial derived LPS treated with the enzyme) was 10-100 fold. In data set [1] (boiled enzyme), the “enhancement of TNF induction with boiled enzyme” value was “no enhancement occurred”. Moreover, the “enhancement of TNF induction by malaria toxin (extracts of infected RBC) pre-treated with enzyme” value in data set [1] (extracts of RBC infected with P. yoelii or P. berghei) is on record as “Significant increase in TNF-induction”. Besides, in data set [1] (overnight at 37° C. with 2 U/ml enzyme), the “pH of greatest enhancement of TNF-induction by malaria toxin” value worked out at 8.0 pH. Also, the “enhancement of TNF-inducing activity of LPS” value in data set [1] (similar pH profile to the toxin) is on record as “also enhanced”. Moreover, in data set [1] (storage at 4° C.), the “stability of TNF-enhancing capacity on storage” value is “deteriorated”. Besides, in data set [2], the “pH optimum of hydrolysis of αPNP-Gal” value was 6.0 pH. In data set [2] (pH 8.0), the “hydrolysis of αPNP-Gal at pH 8.0” value is given as “undetectable”. The “β-galactosidase activity against βPNP-Gal” value in data set [3] is “No β-galactosidase activity was detectable”.
